Results on two molecules are retold here after US10035800B2 (AbbVie Inc., priority 2013, dated 2018).

One may read the Ki as the equilibrium dissociation constant of an inhibitor or competing ligand from its target. A high value points to a looser hold on the target.

The subject of test [1] is IL-6 (Interleukin-6) production. Nature of the test: LPS (lipopolysaccharide) induced IL-6 production mouse assay. Format: in vivo, mice. The settings on record: mouse strain CD1; oral administration 1 h before LPS 2.5 mg/kg ip; serum 2 h after LPS; p < 0.05 vs vehicle. Here is the method:
LPS (Lipopolysaccharide) Induced IL-6 Production Mouse Assay
Compounds of the Examples listed in Table 2 were assayed for their ability to inhibit LPS (lipopolysaccharide) induced IL-6 (Interleukin-6) production in mice. Fox Chase SCID® female mice (Charles Rivers Labs, 5 per group) or CD1 female mice (5 per group) received an intraperitoneal challenge of lipopolysaccharide (2.5 mg/kg, L2630 E. coli 0111:B4) one hour after oral administration of compounds. Mice were euthanized 2 hours after lipopolysaccharide injection, blood was removed by cardiac puncture, and then the serum harvested from the blood samples was frozen at −80° C. On the day of the assay the serum samples were brought to room temperature and then diluted 1:20 in phosphate-buffered saline containing 2% bovine serum albumin. Interleukin-6 measurements were performed using a cytokine assay from Meso Scale Discovery (Gaithersburg, Md.) for mouse serum analysis according to the manufacturer's protocol and read on a SECTOR Imager 6000 (Meso Scale Discovery, Gaithersburg, Md.) instrument. Statistical analysis was performed using Prism software (version 5.0) incorporating Dunnett's one way ANOVA. The IL-6 mean and standard deviation of the group of vehicle treated animals were compared with the IL-6 mean and standard deviation of the group treated with drug. A p value <0.05 means that there is less than a 5% probability that the mean values in the two groups are equal.

The target in test [2] is T1, BRD4 (BDII_E352-M457) (Homo sapiens, UniProt O60885).
T1 construct: protocol; made in house
Nature of the test: TR-FRET bromodomain binding assay, second bromodomain of BRD4. The settings on record: TR-FRET assay protocol G (compound 0.92 μM-15 pM); 30 nM probe. The method in brief: (§1)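 His-tagged BRD4 bromodomain (8 nM) was incubated with Eu-anti-His antibody (1 nM) and an Alexa647-labelled BET-inhibitor probe (100 nM for BDI, 30 nM for BDII) in pH 6.0 phosphate buffer with 2% DMSO for 1 h at room temperature. TR-FRET ratio was read, IC50 fitted by 4-parameter logistic, then converted to Ki.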

The test system of test [3] is breast cancer cell line MX-1. The test can be described thus: MX-1 cell line proliferation assay. The class given is cell-based. The settings on record: MX-1 cells, 3-day proliferation assay, Cell Titer Glo; read-out: Cellular proliferation: EC50. The method in brief: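 EC50 comes from sigmoidal fits of Cell Titer Glo luminescence relative to DMSO controls, with assay MSR 2.1. Ten-point 3-fold dilutions (top 3 or 1 μM final) were added to MX-1 breast cancer cells after overnight adhesion. Cells were at 5000/well and proliferation ran 3 days.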

In test [4] the test system is OPM-2 xenograft tumors. The settings on record: QD x21, SCID-beige mice.
Procedure: Xenograft Tumor Growth Inhibition Assay
A suspension of cancer cells (5×10^6 per 0.1 mL) prepared in RPMI culture medium (Invitrogen, Carlsbad, Calif.) was diluted 1:1 with a solution of Matrigel™ (BD Biosciences, Franklin Lakes, N.J.) and inoculated subcutaneously into the right hind flank of female SCID-beige (Charles River Labs) mice. Randomization into treatment and vehicle control groups (8-10/group) occurred when the mean tumor volume reached approximately 250 mm^3. Compounds were formulated in 2.5% DMSO, 10% ethanol, 27.5% PEG 400, 60% Phosol 53 MCT. Administration of compound or vehicle was initiated on the day following randomization and continued for 21 days. Tumors were measured twice a week throughout the treatment period using a pair of calipers and tumor volumes were calculated according to the formula V=L×W^2/2 (V: volume, mm^3; L: length, mm. W: width, mm).
For test [5], the target named is T2, BRD4 (BDI_K57-E168) (Homo sapiens, UniProt O60885).
T2 construct: BD1: amino acids K57-E168; made in house
Nature of the test: TR-FRET bromodomain binding assay, first bromodomain of BRD4. The settings on record: TR-FRET assay protocol G (compound 0.92 μM-15 pM); 100 nM probe. The method in brief:
as §1

Several values for one entry are separate records, joined by “and”; a condition that tells them apart may be missing. Equal entries are not always repeated. Where two headings read alike, the source gives them in different places. Marks after values point to notes of the source that are not given here.

On to `Cn1cc2c3c(c(C#N)[nH]c3c1=O)CN(c1ccc(Cl)cc1)c1ccc(CS(C)(=O)=O)cc1-2` [Example 199, 4-(4-chlorophenyl)-10-methyl-7-((methylsulfonyl)methyl)-11-oxo-3,4,10,11-tetrahydro-1H-1,4,10-triazadibenzo[cd,f]azulene-2-carbonitrile], for which, in test [1], the “% inhibition of LPS induced IL-6 production” value came out at 90%. In addition, the Ki in test [2] came out at 1.21 nM; in test [5] it was 0.81 nM. The EC50 in test [3] came to 10.8 nM. In addition, the “% TGI” value in test [4] (1.25 mg/kg PO) was 91*** %.

For `Cn1cc2c3c(c[nH]c3c1=O)CN(c1ccccn1)c1ccc(CS(C)(=O)=O)cc1-2` [Example 207, 10-methyl-7-((methylsulfonyl)methyl)-4-(pyridin-2-yl)-3,4-dihydro-1H-1,4,10-triazadibenzo[cd,f]azulen-11(10H)-one], in test [1], the “% inhibition of LPS induced IL-6 production” value was 65%. Also, the values for the Ki in test [2] and in test [5] were 2.09 nM and 0.92 nM, respectively. The EC50 in test [3] was found to be 1.33 nM. The “% TGI” value is 60*** % in test [4] (0.25 mg/kg PO); 93*** % and 94*** % in test [4] (0.5 mg/kg PO); 97*** % in test [4] (1 mg/kg PO).
